# Several values for one entry are separate records, joined by “and”; a condition that tells them apart may be missing. Identical values can stand only once. Entries after “also recorded” stand apart in the source; their conditions may differ. Like-named read-outs stand apart in the source and are kept apart here.
# Assays:
# [1] = Blood pharmacokinetics after oral dosing (fluorescence HPLC, noncompartmental WinNonlin model); type: in vivo, human; conditions: for Cmax / Vd/F / MRT / Tmax / half-life / AUC: human
# Protocol: Study drugs were administered in the GCRC on an empty stomach between 8 and 9 AM the morning after admission (after fasting for ≥ 10 h).
# [2] = Urinary excretion and renal clearance (24-hour urine collections, days 1-3)
# [3] = system: QT interval; experiment: Effects on the QT interval (ECG and Holter recordings, Bazett correction); conditions: for QTc interval, Baseline: before dosing
# Protocol: The effects of the study drugs on the QT interval were assessed by comparing QT intervals before dosing with QT intervals 4 h after dosing, and at the 2 wk follow-up. […] QT intervals were measured manually and electronically (Rozinn Electronics, Glendale, New York, United States). […] Correction of the QT interval for heart rate (i.e., QTc) was performed using Bazett's formula [27].
# [4] = system: healthy volunteers; experiment: Clinical adverse events (weekly diaries, blinded relatedness assessment), Phase I RCT; type: in vivo, human
# Protocol: Adverse events (AEs) were recorded in weekly diaries provided to each volunteer. The relatedness of these AEs to the study drugs was assessed by two physicians (FM, CH) based on temporal association and biological plausibility using five categories: definitely not, unlikely, possibly, probably, and definitely related. The AEs reported in this manuscript include all AEs assessed as possibly, probably, or definitely related.
# Quantitative data are presented as the mean ± standard deviation or as median and range, as appropriate. […] Due to a lack of normality, the nonparametric Mann-Whitney U test was used to compare independent samples; the Wilcoxon or Friedman test (whichever was appropriate) was used to compare repeated measures of the QTc interval. All statistical tests were two-sided with an α (significance level) of 0.05. Analyses were performed using the SPSS 11.0 statistical software (SPSS, Chicago, Illinois, United States). All analyses were based on allocation by intent-to-treat.
# [5] = system: healthy volunteers; experiment: Post-dose clinical and laboratory follow-up (hematology, chemistry, organ toxicity); type: in vivo, human
# [6] = 1,750 mg AQ-13, 1,500 mg CQ, mean ± SD
# [7] = 600/700 mg AQ-13, 600 mg CQ, mean ± SD
# [8] = 1,500 mg CQ (n = 15) / 1,750 mg AQ-13 (n = 14)
# [9] = 100, 300 mg doses, n = 16 per drug
# [10] = 600/700 mg, AQ-13 n = 25, CQ n = 24
# [11] = all doses combined, 63 volunteers per drug
# [12] = days 1-3, 1,750 mg AQ-13 / 1,500 mg CQ
structure (smiles),measurement,setting,value
CC(CCCN)Nc1ccnc2cc(Cl)ccc12 (centres unmarked) [BDCQ],detection of di-dealkylated metabolite in the blood,[1]; after oral AQ-13 or CQ,not detected in the blood
same,second (di-dealkylated) metabolite/parent ratio in urine,"[2]; days 1-3, AQ-73/AQ-13 and BDCQ/CQ",2.6%
same,detection of di-dealkylated metabolite in urine,[2]; urine collections days 1-3 after dosing,identified in urine collections
"CCN(CC)CCCC(C)Nc1ccnc2cc(Cl)ccc12 (centres unmarked) [CQ, chloroquine]",QTc interval of individual volunteers who developed QTc greater than 450 ms,"[3]; 600 mg CQ, two females",467 ms and 457 ms
same,mean QTc prolongation after the first dose (day 1),"[3]; 1,500 mg CQ (first 600 mg dose) / 1,750 mg AQ-13 (first 700 mg dose)",16 ms
same,additional QTc increase after the second dose (day 2),"[3]; 1,500 mg CQ / 1,750 mg AQ-13",12 ms
same,QTc interval of individual volunteers who developed QTc > 450 ms,"[3]; 1,500 mg CQ, 4 h after dosing on day 2, two females",453 ms
same,"QTc interval, Baseline","[3]; 1,750 mg AQ-13 (n = 13), 1,500 mg CQ (n = 14), mean ± SD",396 ± 21 ms
same,"QTc interval, 2 wk follow-up",[3]; [6],412 ± 13 ms
same,"QTc interval, 4–5 h post-dose (day 1)",[3]; [6],412 ± 22 ms
same,"QTc interval, 4–5 h post-dose (day 2)",[3]; [6],424 ± 19 ms and 424 ± 18 ms
same,"QTc interval, 4–5 h post-dose (day 3)",[3]; [6],417 ± 21 ms
same,"mean QTc prolongation, females","[3]; 1,750 mg AQ-13 / 1,500 mg CQ",28 ms
same,"mean QTc prolongation, males","[3]; 1,750 mg AQ-13 / 1,500 mg CQ",31 ms
same,mean increase in the QTc interval from baseline,"[3]; 1,750 mg AQ-13 / 1,500 mg CQ, 4 h after the second dose on day 2",28 ms
same,"QTc interval, Baseline","[3]; 600/700 mg AQ-13 (n = 25), 600 mg CQ (n = 24), mean ± SD",406 ± 19 ms
same,"QTc interval, 2 wk follow-up",[3]; [7],403 ± 15 ms
same,"QTc interval, 4–5 h post-dose (day 1)",[3]; [7],421 ± 20 ms
same,maximal prolongation of the QTc interval from baseline at the individual level,[3]; 600/700 mg dose,54 ms
same,maximal prolongation of the QTc interval from baseline at the individual level,"[3]; 1,500/1,750 mg dose",63 ms
same,"mean increase in the QTc interval from baseline, females",[3]; 4 h after 600 mg CQ or 600/700 mg AQ-13,22 ms
same,"mean QTc interval change from baseline, males","[3]; 4 h after 600 mg CQ or 600/700 mg AQ-13, not significant",7 ms
same,mean increase in the QTc interval from baseline,[3]; 4 h after 600 mg CQ or 600 or 700 mg AQ-13,15 ms and 16 ms
same,arrhythmias or other cardiac AEs,[3]; all doses,no arrhythmias or other cardiac AEs; also recorded: no cardiac AEs
same,related adverse events: None,"[4]; 10 mg dose, n = 8 per drug",0
same,"Abdominal pain, number (%)",[4]; [8],0
same,"Blurred vision, number (%)",[4]; [8],2 (13%)
same,"Diarrhea, number (%)",[4]; [8],4 (27%)
same,"Difficulty focusing/visual floating objects, number (%)",[4]; [8],3 (20%)
same,"Lightheadedness/Dizziness, number (%)",[4]; [8],4 (27%)
same,"Loss of appetite, number (%)",[4]; [8],2 (13%)
same,"Nausea, number (%)",[4]; [8],5 (33%)
same,"Vomiting, number (%)",[4]; [8],2 (13%)
same,"Weakness/fatigue, number (%)",[4]; [8],0
same,"Headache, number (%)","[4]; 1,500 mg CQ (n = 15) / 1,750 mg AQ-13 (n = 14) over 3 d",4 (27%)
same,"Headache, volunteers with related AE, number (%)",[4]; [9],1 (6%)
same,"Lightheadedness/Dizziness, number (%)",[4]; [9],1 (6%)
same,"Nausea, number (%)",[4]; [9],0
same,"Abdominal pain, number (%)",[4]; [10],0
same,"Diarrhea, number (%)",[4]; [10],2 (8%)
same,"Ear symptoms, number (%)",[4]; [10],2 (8%)
same,"Headache, number (%)",[4]; [10],5 (21%)
same,"Lightheadedness/Dizziness, number (%)",[4]; [10],3 (13%)
same,"Loss of appetite, number (%)",[4]; [10],3 (13%)
same,"Nausea, number (%)",[4]; [10],1 (4%)
same,"Vomiting, number (%)",[4]; [10],0
same,"drug-related GI symptoms, number of reports",[4]; all doses combined,20 reports
same,"drug-related lightheadedness/dizziness, volunteers/total",[4]; [11],8/63
same,volunteers reporting one or more GI symptoms/total,[4]; [11],13/63
same,hematologic or chemical toxicities on repeat laboratory testing,[5]; 4 d after drug administration,no hematologic or chemical toxicities
same,organ toxicity,"[5]; any dose tested, inpatient exams, 2 and 4 wk follow-up","No hematologic, hepatic, renal, or other organ toxicity was observed; also recorded: no clinical evidence for end-organ toxicity"
same,blood level one hour after dosing as % of Cmax,[1]; 600 mg oral dose,72%
same,Cl/F,"[1]; 1,500 mg oral over 3 d, median (range)",9.5 L/h
same,median oral clearance (range of medians across dose levels),"[1]; 600 and 1,500/1,750 mg doses",9.5 to 11.3 L/h
same,Cmax,"[1]; in vivo, 1500 mg, 1,500 mg oral over 3 d (600+600+300 mg), whole blood, median (range), read-out: Cmax",3400 nM
same,Vd/F,"[1]; in vivo, 1500 mg, 1,500 mg oral over 3 d, median (range)",3720 L
same,MRT,"[1]; in vivo, 1500 mg, 1,500 mg oral over 3 d, median (range), read-out: MRT (converted)",16 days
same,Tmax,"[1]; in vivo, 1500 mg, 1,500 mg oral over 3 d, median (range), read-out: Tmax",1.1 days
same,half-life,"[1]; in vivo, 1500 mg, 1,500 mg oral over 3 d, median (range), read-out: t½ (converted)",13.2 days
same,AUC,"[1]; in vivo, po, 600 mg, single oral 600 mg dose, whole blood, median (range), read-out: AUCw1 (partial AUC for week 1)",90 µM·h
same,AUC,"[1]; in vivo, po, 600 mg, single oral 600 mg dose, whole blood, median (range), read-out: AUCτ (total area under the curve)",241 µM·h
same,AUC,"[1]; in vivo, po, 1500 mg, 1,500 mg oral over 3 d, median (range), read-out: AUCw1",312 µM·h
same,AUC,"[1]; in vivo, po, 1500 mg, 1,500 mg oral over 3 d, median (range), read-out: AUCτ",636 µM·h
same,Tmax,"[1]; in vivo, 1,750 mg AQ-13 / 1,500 mg CQ, 27–28 h after the first dose, read-out: time of peak blood concentration after the second dose",0.125 to 0.167 days
same,half-life,"[1]; in vivo, 600 and 1,500 mg oral doses, read-out: estimate of the terminal elimination t1/2 (across doses)",14 to 24 days
same,Cmax,"[1]; in vivo, single oral 600 mg dose (CQ base equivalent), whole blood, median (range), read-out: Cmax",1800 nM
same,Vd/F,"[1]; in vivo, single oral 600 mg dose, median (range)",8670 L
same,MRT,"[1]; in vivo, single oral 600 mg dose, whole blood, median (range), read-out: MRT (converted)",24.7 days
same,Tmax,"[1]; in vivo, single oral 600 mg dose, whole blood, median (range), read-out: Tmax",0.125 days
same,half-life,"[1]; in vivo, single oral 600 mg dose, whole blood, median (range), read-out: t½ (terminal elimination half-life) (converted)",23.3 days
same,linearity of pharmacokinetics,[1]; oral doses in healthy volunteers,linear pharmacokinetics
same,Cl/F (apparent oral clearance),"[1]; single oral 600 mg dose, median (range)",11.3 (5.7–20.3) l/h
same,amount of unchanged drug recovered from 24 hour urine collections,[2]; [12],829 µmol
same,"unchanged drug recovered from 24 hour urine collections, % of total oral dose",[2]; [12],18.0%
same,CL renal,"[2]; human, in vivo, po, 1500 mg",100 mL/min
"CCNCCCC(C)Nc1ccnc2cc(Cl)ccc12 (centres unmarked) [MDCQ, mono-desethylchloroquine]",time after dosing at which metabolite/parent ratio reached 1.0,"[1]; 600 mg CQ, MDCQ/CQ ratio",2–3 wk
same,metabolite/parent ratio in blood at the Cmax of the parent drug,"[1]; 600 mg dose, AQ-72/AQ-13 (mean) or MDCQ/CQ",0.26
same,time to appearance of metabolite in the blood,[1]; after oral 600 or 700 mg AQ-13 or 600 mg CQ,≤ 1 h
same,AUC,"[1]; whole blood, oral, 1500 mg, after 1,500 mg CQ over 3 d, median (range), read-out: AUCτ of metabolite",330 µM·h
same,MRT,"[1]; whole blood, oral, 1500 mg, after 1,500 mg CQ over 3 d, median (range), read-out: MRT of metabolite (converted)",29 days
same,half-life,"[1]; whole blood, oral, 1500 mg, after 1,500 mg CQ over 3 d, median (range), read-out: t1/2 of metabolite (converted)",21.8 days
same,AUC,"[1]; whole blood, po, 600 mg, after 600 mg oral dose of parent drug (CQ or AQ-13), whole blood, median (range), read-out: AUCτ of metabolite",205 µM·h
same,MRT,"[1]; whole blood, after 600 mg oral dose of parent drug, median (range), read-out: MRT of metabolite (converted)",44.8 days
same,half-life,"[1]; whole blood, after 600 mg oral dose of parent drug, median (range), read-out: t1/2 of metabolite (converted)",31.2 days
same,Cmax,"[1]; whole blood, after 600 mg oral dose of parent drug, median, read-out: Cmax of metabolite",540 nM
same,mono-dealkylated metabolite/parent ratio in urine,"[2]; days 1-3, AQ-72/AQ-13 and MDCQ/CQ",22.7%

# Source: PMC1764434 (PLoS Clinical Trials, 2007)
